Test results reported in patent publication US20220017541A1, “INHIBITORS OF ARGINASE” (Black Belt Tx Ltd, priority 2018, published 2022).

Tests used:
recombinant human ARG1 = target: T1, recombinant human ARG1 (Homo sapiens, UniProt P05089); assay: Arginase enzymatic assay in vitro, recombinant human ARG1 (colorimetric urea detection); type: biochemical; settings: recombinant human arginase 1; read-out: IC50 Inh rhARG1
T1 construct: purchased R&D System 5868-AR-010
T1 sequence (P05089 1-322): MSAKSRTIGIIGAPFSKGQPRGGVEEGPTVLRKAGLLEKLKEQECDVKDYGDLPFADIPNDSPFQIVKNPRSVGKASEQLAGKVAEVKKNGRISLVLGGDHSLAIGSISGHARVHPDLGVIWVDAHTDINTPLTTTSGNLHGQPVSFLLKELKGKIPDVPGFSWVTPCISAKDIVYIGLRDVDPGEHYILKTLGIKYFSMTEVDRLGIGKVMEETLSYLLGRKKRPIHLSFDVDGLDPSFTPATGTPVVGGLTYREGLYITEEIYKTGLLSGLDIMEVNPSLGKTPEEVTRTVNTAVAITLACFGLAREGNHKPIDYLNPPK
Source text: (§1) Arginase catalyzes the hydrolysis of L-arginine into L-ornithine and urea. Urea amount produced by this reaction can be detected using a colorimetric assay and used as an indirect measurement of arginase activity. An adapted protocol from (Baggio, R., et al., J Pharmacol Exp Ther, 1999. 290(3): p. 1409-16) was used for the testing the ability of exemplary compounds of the invention to inhibit arginase enzymes from a variety of sources including recombinant human ARG1 and 2, lysates of human red blood cells (RBC) and intact murine macrophages, as described below.
(§2) Compounds of the invention were prepared from powder as 10 mM stock solutions in DMSO and stored in presence of N2 neutral atmosphere at −80° C. For IC50 determination and just before the assay, exemplary compounds were successively diluted to get the following concentrations: 210, 70, 21, 7, 2.1, 0.7, 0.21, 0.07, 0.021, 0.007, 0.0021 and 0.0007 μM (i.e., final concentrations in the wells of 30, 10, 3, 1, 0.3, 0.1, 0.03, 0.01, 0.003, 0.001, 0.0003, 0.0001 μM).
(§3) Assays were run in clear flat bottom 96-well plates (Nunclon, Cat. No. #167008) adding in each well the following solutions in this order: (1) 10 μl of Tris-HCl solution supplemented with 0.1% bovine serum albumin (BSA) containing 1.563 μg/ml recombinant human ARG1 (R&D System, Cat. No. #5868-AR-010), (2) 30 μl of Tris-HCl buffer containing 10 mM MnCl2 and (3) 10 μL of a pre-dilution of each test article or DMSO (vehicle). Compounds were allowed to interact with the enzyme-cofactor complex pre-incubating the plate at 37° C. for 30 min. To start the reaction, 20 μl of 50 mM L-arginine (Sigma Aldrich Cat. #A5006-100G) were added to each well in exception of the blank reaction (see below). All reactions were allowed to happen for 1 h at 37° C. To detect the urea production, reactions were stopped by adding 200 μl of a mixture of reagent A (4 mM o-phthalaldehyde in 50 mM Boric Acid, 1 M Sulfuric Acid, 0.03% Brij-35 (w/v)) and reagent B (4 mM N-(1-naphthyl)ethylenediamine in 50 mM Boric Acid, 1 M Sulfuric Acid, 0.03% Brij-35 (w/v)) in equal proportion. Color product was developed for 1 h at room temperature (RT) protected from light and then absorbance at 520 nm was measured using a Multifunction Microplate Reader (Synergy 4, Bioteck). Blank reactions were carried out by adding the L-arginine substrate only after the addition of mixture A-B. All reactions were carried out in duplicates.
(§4) The inhibition of urea production was calculated subtracting the absorbance from the blank reaction (zero enzymatic urea production) to the absorbance from all reactions and it was expressed as the percentage of the absorbance from the reaction containing the test article with respect to the absorbance from vehicle reaction (maximum of urea production).

recombinant human ARG2 = target: T2, recombinant human ARG2 (Homo sapiens, UniProt P78540); assay: Arginase enzymatic assay in vitro, recombinant human ARG2 (colorimetric urea detection); type: biochemical; settings: recombinant human arginase 2; read-out: IC50 Inh rhARG2
T2 construct: purchased BPS Bioscience 71659
T2 sequence (P78540 23-354): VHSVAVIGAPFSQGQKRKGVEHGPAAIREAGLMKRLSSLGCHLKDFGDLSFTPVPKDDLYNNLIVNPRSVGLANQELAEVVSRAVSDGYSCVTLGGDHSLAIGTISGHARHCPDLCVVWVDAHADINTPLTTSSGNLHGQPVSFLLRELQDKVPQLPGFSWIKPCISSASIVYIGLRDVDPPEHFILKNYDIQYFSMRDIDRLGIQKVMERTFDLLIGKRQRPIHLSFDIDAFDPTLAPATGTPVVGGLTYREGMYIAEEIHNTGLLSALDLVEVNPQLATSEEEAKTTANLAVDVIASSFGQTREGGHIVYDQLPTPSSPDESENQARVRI
Source text: as §1, §2, §3, §4
For testing inhibitory activity over recombinant human arginase II, 10 μl of Tris-HCl solution supplemented with 0.1% BSA containing 1.5 μg/ml recombinant human ARG2 (BPS Bioscience, Cat. No. #71659) was used instead of ARG1.

[1] = target: T3, arginase activity in intact BMM-M2 cells (Mus musculus, UniProt Q61176); assay: Cell-based arginase assay: urea production by cultured BMM-M2 cells; settings: 10 μM test compound, 24 h; for inhibition at 10 µM: read-out: Inh. urea production @10 μM (%)
T3 construct: endogenous in cells; host or cells: bone-marrow derived macrophages from male C57BL/6 mice, polarised to M2 with IL-4
T3 sequence (Q61176 1-323): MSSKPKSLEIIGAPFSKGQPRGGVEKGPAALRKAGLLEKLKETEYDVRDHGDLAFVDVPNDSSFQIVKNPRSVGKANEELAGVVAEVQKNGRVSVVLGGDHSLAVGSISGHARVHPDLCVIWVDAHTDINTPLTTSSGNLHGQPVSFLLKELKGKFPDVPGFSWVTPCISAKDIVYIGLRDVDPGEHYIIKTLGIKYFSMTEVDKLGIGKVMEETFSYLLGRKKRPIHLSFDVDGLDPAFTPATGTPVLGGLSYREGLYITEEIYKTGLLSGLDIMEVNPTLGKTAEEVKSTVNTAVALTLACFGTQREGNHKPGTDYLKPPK
Method: Murine bone-marrow derived macrophages (BMM) represent a convenient in vitro model that enables differentiation of these cells towards M1 or M2 macrophages. Briefly, male C57BL/6 mice 7-8 weeks old were euthanized by carbon dioxide asphyxiation. Femur and tibiae bones were removed under aseptic conditions and collected in a plate containing sterile ice-cold PBS 1×. After sterilization of bones in 70% ethanol during 1 min, bones were placed into a clean Petri dish containing fresh sterile ice-cold PBS 1×. The ends of each bone were cut and the marrow cavity was flushed using forceps and syringes filled with pre-warmed complete α-MEM growing medium (α-MEM without red phenol (Life Technologies, Cat. No. #41061-029) supplemented with 10% FBS, penicillin and streptomycin). Bone marrow (BM) cells were harvested in a 15 ml clean tube and centrifuged at 400 g for 8 min at RT. Supernatant was discarded and BM pellet was re-suspended in 5 ml Ammonium-Chloride-Potassium (ACK) buffer for 5 minutes at RT to lysis RBC. BM cell suspension was centrifuged at 400 g for 8 min at RT. Supernatant was discarded and BM cell pellet was re-suspended in complete α-MEM growing medium and passed through a 70 μm cell restrainer to eliminate solid contaminates and cellular aggregates. BM cells were seeded in 8 ml of complete α-MEM growing medium supplemented with 100 ng/ml recombinant mouse M-CSF (R&D Systems, Cat. No. #416-ML-050) in 100-mm dishes. BM cells were cultured overnight to get rid of contaminating stromal cells in a humidified incubator with 5% CO2 at 37° C. At the following day, non-adherent cells were collected in a clean 15-ml tube and centrifuged at 400 g for 8 min at RT. Cell pellet was re-suspended in complete α-MEM growing medium and counted using a hemocytometer Neubauer's chamber. Hematopoietic precursor cells were differentiated into BMM in presence of complete α-MEM growing medium supplemented 50 ng/ml M-CSF for 3 days. Finally to polarize BMM towards M2 phenotype, cells were incubated in presence 20 ng/ml of recombinant mouse IL-4 (R&D Systems, Cat. No. #404-ML-010) added to fresh complete α-MEM growing medium supplemented 50 ng/ml M-CSF for 24 h.
At the day of the experiment, BMM-M2 were treated for 24 h with vehicle (DMSO) or compounds of the invention at 1 and 10 μM prepared in fresh complete α-MEM growing medium supplemented 50 ng/ml M-CSF, 20 ng/ml IL-4 and 10 mM L-arginine (Cat. No. #A5006, Sigma Aldrich). At the next day, 70 μl aliquots of each treated culture media (supernatants) were transferred into a clear 96-well plate. Measurements of urea produced by BMM-M2 were performed using the adapted protocol detailed in Example B1. Wells without BMM-M2 containing only treatment media (vehicle) were used to determine the zero cell-derived urea production (blank). All treatments were carried out in triplicates.
The inhibition of urea production was calculated subtracting the absorbance from the blank to the absorbance from all treatments and it was expressed as the percentage of the absorbance from the reaction containing the test article treatment with respect to the absorbance from vehicle treatment (maximum of urea production).

NC(CCCCB(O)O)(C(=O)O)C1CCN(C2CCCc3ccccc32)CC1 (single isomer, unassigned) [Compound 7, 2-amino-6-borono-2-(1-(1,2,3,4-tetrahydronaphthalen-1-yl)piperidin-4-yl)hexanoic acid]
IC50 (recombinant human ARG1): < 500 nM | IC50 (recombinant human ARG2): 500 to 5000 nM

NC(CCCCB(O)O)(C(=O)O)C1CCN(C2CCCc3ccccc32)CC1 (single isomer, unassigned) [Compound 8, 2-amino-6-borono-2-(1-(1,2,3,4-tetrahydronaphthalen-1-yl)piperidin-4-yl)hexanoic acid]
IC50 (recombinant human ARG1): < 500 nM | IC50 (recombinant human ARG2): < 500 nM

NC(CCCCB(O)O)(C(=O)O)C1CCN(C2CCc3cc(F)c(F)cc32)CC1 (single isomer, unassigned) [Compound 19, 2-amino-6-borono-2-[1-(5,6-difluoroindan-1-yl)-4-piperidyl]hexanoic acid]
IC50 (recombinant human ARG1): < 500 nM | Inh. urea production @10 μM (%) [1]: ++ (25% < % inhibition < 15% at 10 μM test compound) | IC50 (recombinant human ARG2): < 500 nM

NC(CCCCB(O)O)(C(=O)O)C1CCN(C2Cc3ccccc3C2)CC1 (single isomer, unassigned) [Compound 24, 2-amino-6-borono-2-(1-(2,3-dihydro-1H-inden-2-yl)piperidin-4-yl)hexanoic acid]
IC50 (recombinant human ARG1): 500 to 5000 nM | Inh. urea production @10 μM (%) [1]: ++ (25% < % inhibition < 15% at 10 μM test compound) | IC50 (recombinant human ARG2): 500 to 5000 nM

NC(CCCCB(O)O)(C(=O)O)C1CCN(C2Cc3ccccc3C2)CC1 (single isomer, unassigned) [Compound 25, 2-amino-6-borono-2-(1-(2,3-dihydro-1H-inden-2-yl)piperidin-4-yl)hexanoic acid]
IC50 (recombinant human ARG1): > 5000 nM | IC50 (recombinant human ARG2): > 5000 nM

NC(CCCCB(O)O)(C(=O)O)C1CCN(C2CCc3ccc(C(F)(F)F)cc32)CC1 (single isomer, unassigned) [Compound 35, 2-amino-6-borono-2-[1-[6-(trifluoromethyl)indan-1-yl]-4-piperidyl]hexanoic acid]
IC50 (recombinant human ARG1): < 500 nM | inhibition at 10 µM [1]: < 15% | IC50 (recombinant human ARG2): < 500 nM

NC(CCCCB(O)O)(C(=O)O)C1CCN(C2CCCc3c(Br)cccc32)CC1 (single isomer, unassigned) [Compound 86, 2-amino-6-borono-2-(1-(5-bromo-1,2,3,4-tetrahydronaphthalen-1-yl)piperidin-4-yl)hexanoic acid]
IC50 (recombinant human ARG1): < 500 nM | Inh. urea production @10 μM (%) [1]: ++ (25% < % inhibition < 15% at 10 μM test compound) | IC50 (recombinant human ARG2): 500 to 5000 nM

NC(CCCCB(O)O)(C(=O)O)C1CCN(C2CCCc3cc(-c4ccccc4)ccc32)CC1 (single isomer, unassigned) [Compound 87, 2-amino-6-borono-2-(1-(6-phenyl-1,2,3,4-tetrahydronaphthalen-1-yl)piperidin-4-yl)hexanoic acid]
IC50 (recombinant human ARG1): < 500 nM | inhibition at 10 µM [1]: > 25% | IC50 (recombinant human ARG2): < 500 nM

NC(CCCCB(O)O)(C(=O)O)C1CCN(C2CCc3ccc(F)cc32)CC1 (single isomer, unassigned) [Compound 88, 2-amino-6-borono-2-(1-(6-fluoro-2,3-dihydro-1H-inden-1-yl)piperidin-4-yl)hexanoic acid]
IC50 (recombinant human ARG1): < 500 nM | inhibition at 10 µM [1]: > 25% | IC50 (recombinant human ARG2): < 500 nM

CC(c1ccc(F)c(Cl)c1)N1CCC(C(N)(CCCCB(O)O)C(=O)O)CC1 (single isomer, unassigned) [Compound 89, 2-amino-6-borono-2-(1-(1-(3-chloro-4-fluorophenyl)ethyl)piperidin-4-yl)hexanoic acid]
IC50 (recombinant human ARG1): < 500 nM | Inh. urea production @10 μM (%) [1]: ++ (25% < % inhibition < 15% at 10 μM test compound) | IC50 (recombinant human ARG2): 500 to 5000 nM

CCCC(c1ccccc1)N1CCC(C(N)(CCCCB(O)O)C(=O)O)CC1 (single isomer, unassigned) [Compound 90, 2-amino-6-borono-2-[1-(1-phenylbutyl)-4-piperidyl]hexanoic acid]
IC50 (recombinant human ARG1): 500 to 5000 nM | IC50 (recombinant human ARG2): 500 to 5000 nM

NC(CCCCB(O)O)(C(=O)O)C1CCN(C2Cc3ccccc3C2)CC1 (stereo not shown) [Compound 23, 2-amino-6-borono-2-(1-(2,3-dihydro-1H-inden-2-yl)piperidin-4-yl)hexanoic acid]
IC50 (recombinant human ARG1): > 5000 nM | IC50 (recombinant human ARG2): > 5000 nM
